Laboratory results: patent US20260216232A1, “SEVUPARIN FOR THE TREATMENT OF CHRONIC KIDNEY DISEASE” (Modus Therapeutics AB, priority 2022, published 2026)
Like-named read-outs stand apart in the source and are kept apart here. Marks after values point to notes of the source that are not given here.

Legend:
[1] = test system: Kidney Disease and Anemia of Kidney Disease (KD) Mouse Model; experiment: Anemia of CKD mouse model (adenine rich diet), Example 2: blood and serum analysis, body weight; format: in vivo, C57BL/6J male mice
Source text: (§1) All experimental procedures were approved by the Animal Care and Use Committee of University of Brescia. All animals were maintained on normal diet (“Chow” or Standard diet, 4RF21, obtained from Mucedola s.r.l) if not specified otherwise as part of the “Anemia of Chronic Kidney Disease (CKD) mouse model” experiment as described below.
(§2) Animals. The C57BL/6J male mice were purchased from Envigo RMS S.r.l.
(§3) Kidney damage, kidney disease and anemia were induced by an adenine high phosphorus diet denoted as “adenine rich diet” (ARD) (0.2% Adenine; 0.9% Phosphorus; 0.6% Calcium; 20% Casein; Cod. S1102-E750 (purchased from Charles River, Manufacturer: Ssniff Spezialdiäten GmbH).
(§4) ARD was fed to C57BL/6J male mice having reached an age of five-weeks. […] All animals were maintained on ARD or normal diet (Standard diet, 4RF21, Mucedola s.r.l), at timings and extents described in detail for each experiment below. Groups of mice were also kept under normal diet (Standard diet) as healthy control group, for each experiment. Mice had access to food and diet ad libitum.
(§5) Adenine rich diet (ARD) (0.2% Adenine; 0.9% Phosphorus; 0.6% Calcium; 20% (Ssniff Spezialdiäten GmbH), sevuparin 10 mg/kg (Opocrin S.p.A., Apotek Produktion & Laboratorier AB, subcutaneously administered, sc), erythropoietin (EPO, Darbepoietin alfa, Aranesp, AMGEN INC.) intraperitoneally adminstered, ip)
(§6) The hematological parameters hemoglobin (Hb) and hematocrit (Ht) were analyzed using the Hemo Vet Instrument (Infratech) by collecting a single drop of blood from the dorsal pedal vein. The animals weight were monitored weekly in the morning at the following time points of treatment: At start of treatment (P0); after one week of treatment (T1); after two weeks of treatment (T2); after three weeks of treatment (T3); after four weeks of treatment (T4); after five weeks of treatment (T5); after six weeks of treatment (T6); after seven weeks of treatment (T7); after eight weeks of treatment (T8); and after nine weeks of treatment (T9).
(§7) Reticulocyte hemoglobin content (Ret-He), serum hepcidin and serum creatinine (analysis performed by Izler Institute) were analyzed at the end of each experiment)
(§8) Mice were sacrificed at the indicated time points and blood and kidneys were collected for analysis at the end-point of each experiment.
(§9) At the end-point, mouse serum hepcidin was quantified using ELISA kit (Cod. SKU #HMC-001; Intrinsic LifeScience).
(§10) Serum creatinine and blood Reticulocytes-hemoglobin (Ret-He) were analyzed by IZLER Institute (Istituto Zooprofilattico Sperimentale della Lombardia e Dell′Emilia Romagna), using standard procedures.
ARD Pre-Treatment for 9 Weeks Followed by 2 Weeks Treatment with Either Control, Sevuparin, Erythropoietin (EPO) or a Combination of EPO and Sevuparin, Followed by 7 Weeks Recovery without ARD but with Maintained Treatments.
(§11) C57BL/6J male mice were exposed to ARD pretreatment for 9 weeks followed by 2 weeks of randomized allocation to treatments as defined below still with maintained ARD exposure, after which ARD was omitted but treatments were maintained during 7 weeks of recovery. One group of mice was given normal diet (no ARD) for the entire experiment, as healthy control. • a) Treatment with control: mice treated with PBS s.c. every day for 2+7 weeks. • b) Treatment with sevuparin: mice treated with 10 mg/kg Sevuparin s.c. every day for 2+7 weeks. • c) Treatment with […]: mice treated with 50 IU EPO i.p. twice a week for 2+7 weeks. • d) Treatment with EPO+sevuparin: mice treated with 50 IU EPO i.p. twice a week and 10 mg/kg Sevuparin s.c. every day for 2+7 weeks.
Hemoglobin (Hb), hematocrit (Ht), weigh (wt), serum-creatitine (S-crea), reticulocyte hemoglobin (Ret-He) content and serum-hepcidin (nM) was measured in the mice.

factor IIa = conditions: definition of sevuparin; no test described; cited from earlier work
factor Xa = conditions: definition of sevuparin; no test described; cited from earlier work
mouse kidneys [2] = experiment: Example 2: macroscopic and histological status of kidneys (H&E, Sirius Red); format: in vivo, C57BL/6J male mice
Method: as §11

mouse kidneys [3] = conditions: 3 weeks treatment, 20x magnification, compared to kidneys without sevuparin
Method: (§12) C57BL/6J male mice were exposed to ARD pretreatment for 9 weeks followed by 3 weeks of randomized allocation to treatments as defined below still with maintained ARD exposure. One group of mice was given normal diet (no ARD) for the entire experiment, as healthy control. • a) Treatment with control: mice treated with PBS s.c. every day for 3 weeks. • b) Treatment with sevuparin: mice treated with 10 mg/kg Sevuparin s.c. every day for 3 weeks.

[4] = test system: Kidney Disease and Anemia of Kidney Disease (KD) Mouse Model
Source text: as §1, §2, §3, §4, §5, §6, §7, §8, §9, §10
ARD Pretreatment for 9 Weeks Followed by 3 Weeks Treatment with Either Control or Sevuparin
as §12

[5] = test system: Kidney Disease and Anemia of Kidney Disease (KD) Mouse Model; experiment: Anemia of CKD mouse model (adenine rich diet), Example 3: blood and serum analysis, body weight; format: in vivo, C57BL/6J male mice
Source text: as §1, §2, §3, §4, §5, §6, §7, §8, §9, §10
ARD Pretreatment for 5.5 Weeks Followed by 3 or 6 Weeks Treatment with Control, Sevuparin, Erythropoietin (EPO), or a Combination of EPO and Sevuparin
C57BL/6J male mice were exposed to ARD pretreatment for 5.5 weeks followed by either 3 or 6 weeks of randomized allocation to treatments as defined below still with maintained ARD exposure. One group of mice was given normal diet (no ARD) for the entire experiment, as healthy control. • a) Treatment control: mice treated with PBS s.c. every day for 3 and 6 weeks respectively. • b) Treatment with sevuparin: mice treated with 10 mg/kg Sevuparin s.c. every day for 3 and 6 weeks respectively. • c) Treatment with EPO: mice treated with 50 IU EPO i.p. twice a week for 3 weeks and mice treated with 50 IU EPO i.p. twice a week for 3 weeks followed by treatment with 25 IU EPO i.p. once a week for the subsequent 3 weeks. • d) Treatment with EPO+sevuparin: mice treated with 10 mg/kg sevuparin s.c. every day and 50 IU EPO i.p. twice a week for 3 weeks and mice treated with 10 mg/kg sevuparin s.c. every day and 50 IU EPO i.p. twice a week for the first 3 weeks followed by treatment with 10 mg/kg sevuparin s.c. every day and 25 IU EPO i.p. once a week for the subsequent 3 weeks.

[6] = 2+7 weeks treatment, compared to mice without any treatment / other treatment groups
[7] = ARD 9 weeks, then 2 weeks treatment on ARD + 7 weeks without ARD, sevuparin 10 mg/kg s.c. every day, EPO 50 IU i.p. twice a week, mean
[8] = 3 weeks treatment, compared to mice not treated with sevuparin
[9] = ARD 9 weeks, then sevuparin 10 mg/kg s.c. every day for 3 weeks with maintained ARD, mean
[10] = ARD 5.5 weeks then treatment with maintained ARD
[11] = ARD 5.5 weeks, then 3 or 6 weeks treatment with maintained ARD (time point not given), sevuparin 10 mg/kg s.c. every day, EPO 50 IU i.p. twice a week (25 IU once a week for subsequent 3 weeks), mean

sevuparin
serum level of hepcidin, in words ([1]; 2+7 weeks treatment): markedly reduced
blood level of reticulocyte hemoglobin (Ret-HE), in words [1, 6]: increased
body weight (wt), in words [1, 6]: increased
hematocrit (Ht), in words [1, 6]: increased
serum level of creatinine (s-Crea), in words [1, 6]: reduced
Hb [1, 7]: 9.45^(3) g/dL
Ht [1, 7]: 27.75^(8) %
Ret-He [1, 7]: 15.78^(23) pg
S-Crea [1, 7]: 0.78^(18) mg/dL
S-Hepcidin [1, 7]: 22.32^(28) nM
Wt [1, 7]: 25.75^(13) g
antifactor 11a activity (factor IIa): up to 10 IU/mg
antifactor Xa activity (factor Xa): up to 10 IU/mg
kidney damage, H&E staining (FIG. 2B) (mouse kidneys [2]; 40x magnification, 11 weeks of adenine diet, compared to the untreated control): reduced the damage
collagen deposits (fibrosis), Sirius Red Staining (FIG. 2B) (mouse kidneys [2]; 40x magnification, compared to AD 11 weeks+PBS): reduction of the collagen deposits
physical status of the mouse kidneys, macroscopic photographs (FIG. 2A) (mouse kidneys [2]; compared to mouse kidneys that had not received the same therapy): substantially less cysts, more normal colour and a more homogenous appearance
effect on the micrographs of the mouse kidneys (FIG. 1G) (mouse kidneys [3]): positive effect
Hematocrit levels, in words [4, 8]: increased
Hemoglobin blood levels, in words [4, 8]: increased
blood level of reticulocyte-hemoglobin (Ret-He), in words [4, 8]: increased
body weight, in words [4, 8]: gained body weight
serum creatinine level, in words [4, 8]: increased
serum level of hepcidin, in words [4, 8]: reduced
S-Hepcidin ([4]; ARD 9 weeks, then sevuparin 10 mg/kg s.c. every day for 3 weeks with maintained ARD, ELISA, mean): 36.83^(18) nM
Hb [4, 9]: 10.80^(3) g/dL
Ht [4, 9]: 31.67^(6) %
Ret-He [4, 9]: 14.33^(15) pg
S-Crea [4, 9]: 0.73^(12) mg/dL
Wt [4, 9]: 15.00^(9) g
blood level of hemoglobin (Hb), in words [5, 10]: did not increase
body weight (wt), in words [5, 10]: did not increase
hematocrit (Ht), in words [5, 10]: did not increase
serum level of creatinine (s-Crea), in words ([5]; ARD 5.5 weeks then treatment with maintained ARD, compared to mice without any treatment): reduced
Hb [5, 11]: 9.77^(3) g/dL
Ht [5, 11]: 28.67^(8) %
Ret-He [5, 11]: 14.45^(23)** pg
S-Crea [5, 11]: 0.82^(18) mg/dL
Wt [5, 11]: 17.60^(13) g
impact on the serum level of hepcidin (FIG. 3A) ([5]; at 3 weeks treatment): beneficial impact
beneficial impact on the serum level of hepcidin vs control (FIG. 3B) ([5]; at 6 weeks treatment): no longer present
